The values that follow come from USRE47689E1, “Compounds for treating spinal muscular atrophy” (PTC Therapeutics, Inc., priority 2011, dated 2019).

Read-outs that look alike come from different tables or passages of the source.

For data set [1], the system named is SMN2 minigene (full length SMN2 minigene mRNA containing SMN2 exon 7). As to the kind of experiment: SMN2 minigene mRNA splicing RT-qPCR assay in cultured cells. Type of data set: cell-based, human. As to conditions: Homo sapiens, HEK293-H, read-out: EC1.5x for production of full length SMN2 mRNA. Put shortly: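 Full-length SMN2 minigene mRNA (exon 7 included), minigene-specific and not endogenous SMN, quantified by RT-qPCR multiplexed with GAPDH in stably transfected HEK293H cells after 24 h compound exposure at 37° C. Abundance from efficiency-corrected Ct, normalized to GAPDH and vehicle; EC1.5x reported as star bins.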
Background: Quantitative PCR measures a nucleic acid by following its amplification.

For another data set, the system named is Smn protein. Kind of data set: Smn protein assay in cultured cells (SMN HTRF). It is filed as cell-based, human. As to conditions: 48 hours; for maximum fold (Fold) increase of Smn protein: SMA patient fibroblast cells, 7-point concentration data, fold increase relative to vehicle control (SMN HTRF); for EC1.5x (concentration giving 1.5-fold Smn protein increase): SMA Type 1 patient fibroblast cells (GM03813), 7-point concentration curve, SMN HTRF, concentration producing 1.5 times Smn protein vs DMSO vehicle control, read-out: EC1.5x for Smn protein expression. The method in brief: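 Smn in SMA fibroblast lysates, measured by anti-SMN HTRF after 48 h compound exposure; EC1.5x from fold change over vehicle.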

Setting [2] is: HEK293H cells stably transfected with SMN2-A minigene, 24 hours, 7-point concentration curve, 1.5-fold relative to vehicle-treated cells.

In general, melting point refers to the temperature of the solid-liquid transition. Consider `Cc1cnc2nc(-c3cc4ccc(O[C@@H]5CCNC5)cc4oc3=O)cn2c1.Cl.Cl` [Compound 327, 3-(6-methylimidazo[1,2-a]pyrimidin-2-yl)-7-[(3R)-pyrrolidin-3-yloxy]-2H-chromen-2-one hydrochloride (1:2)], for which the melting point was in the range of 255 to 258 °C. In data set [1] (setting [2]), the EC (1.5-fold) lay in the range of 0.3 to 1 µM. In the data set with Smn protein, the “maximum fold (Fold) increase of Smn protein” value (“maximum fold (Fold) increase” for short) is “** (fold increase between >1.2 and ≤1.35)”.

In the case of `O=c1oc2cc(N3CCNCC3)ccc2cc1-c1cn2ccncc2n1` [Cpd 456, 3-(imidazo[1,2-a]pyrazin-2-yl)-7-(piperazin-1-yl)-2H-chromen-2-one], the melting point is 258 to 260 °C. In addition, in data set [1] (setting [2]), the EC (1.5-fold) was < 0.1 µM. Moreover, in the data set on Smn protein, the EC1.5x (concentration giving 1.5-fold Smn protein increase) is 1000 to 3000 nM; the “maximum fold (Fold) increase” value is “**** (fold increase between >1.5 and ≤1.65)”.

With `O=c1oc2cc(N3CCNCC3)ccc2cc1Nc1ccc(Cl)cn1` [Compound 65, 3-[(5-chloropyridin-2-yl)amino]-7-(piperazin-1-yl)-2H-chromen-2-one], the melting point lay within 253 to 255 °C. In data set [1] (setting [2]), the EC (1.5-fold) fell in the range of 0.3 to 1 µM. The “maximum fold (Fold) increase” value with Smn protein was “* (maximum fold increase of ≤1.2)”.

`CC1(C)CN(c2ccc3cc(-c4cn5cccc(Cl)c5n4)c(=O)oc3c2)CCN1` [Compound 249, 3-(8-chloroimidazo[1,2-a]pyridin-2-yl)-7-(3,3-dimethylpiperazin-1-yl)-2H-chromen-2-one] came in with a melting point of 216 to 220 °C. The EC (1.5-fold) in data set [1] (setting [2]) lay in the range of 0.3 to 1 µM. The “maximum fold (Fold) increase” value in the data set on Smn protein is “** (fold increase between >1.2 and ≤1.35)”.

For the molecule `Cc1ccc2nc(-c3cc4ccc(CN(C)CCO)cc4oc3=O)cn2c1` [Cpd 148, 7-{[(2-hydroxyethyl)(methyl)amino]methyl}-3-(6-methylimidazo[1,2-a]pyridin-2-yl)-2H-chromen-2-one], the melting point was in the range of 166 to 169 °C. Besides, the EC (1.5-fold) in data set [1] (setting [2]) lay in the range of 3 to 30 µM. For the same molecule, in the data set with Smn protein, the EC1.5x (concentration giving 1.5-fold Smn protein increase) lay in the range of 1000 to 3000 nM and the “maximum fold (Fold) increase” value is recorded as “***** (fold increase >1.65)”.

`Cc1cn2cc(-c3cc4ccc(N5C[C@@H](O)[C@H](N(C)C)C5)cc4oc3=O)cc2c(C)n1` [Compound 734, 7-[(3R,4R)-3-(dimethylamino)-4-hydroxypyrrolidin-1-yl]-3-(1,3-dimethylpyrrolo[1,2-a]pyrazin-7-yl)-2H-chromen-2-one] showed a melting point of 173 to 176 °C. Further, in data set [1] (setting [2]), the EC (1.5-fold) was < 0.1 µM. Further, in the data set with Smn protein, the EC1.5x (concentration giving 1.5-fold Smn protein increase) is < 300 nM; the “maximum fold (Fold) increase” value is “**** (fold increase between >1.5 and ≤1.65)”.

For the molecule `COc1ccc(-c2cc3ccc(N4CCN[C@@H](C)C4)cc3oc2=O)cc1OC` [Compound 383, 3-(3,4-dimethoxyphenyl)-7-[(3S)-3-methylpiperazin-1-yl]-2H-chromen-2-one], the melting point lay within 140 to 143 °C. In data set [1] (setting [2]), the EC (1.5-fold) lay in the range of 0.1 to 0.3 µM. In the data set with Smn protein, the EC1.5x (concentration giving 1.5-fold Smn protein increase) fell in the range of 1000 to 3000 nM; the “maximum fold (Fold) increase” value is “**** (fold increase between >1.5 and ≤1.65)”.

Take `C[C@H]1CN(c2ccc3cc(-c4ccc(F)cc4Cl)c(=O)oc3c2)CCN1` [Compound 510, 3-(2-chloro-4-fluorophenyl)-7-[(3S)-3-methylpiperazin-1-yl]-2H-chromen-2-one]: the melting point was in the range of 109 to 111 °C. Further, the EC (1.5-fold) in data set [1] (setting [2]) lay within 3 to 30 µM. For the same molecule, the “maximum fold (Fold) increase” value in the data set with Smn protein is “* (maximum fold increase of ≤1.2)”.

For the molecule `C[C@@H]1CN(c2ccc3cc(-c4cn5ccc(C(F)(F)F)cc5n4)c(=O)oc3c2)C[C@H](C)N1C` [Compound 168, 3-[7-(trifluoromethyl)imidazo[1,2-a]pyridin-2-yl]-7-[(3R,5S)-3,4,5-trimethylpiperazin-1-yl]-2H-chromen-2-one], the melting point lay within 267 to 275 °C. The EC (1.5-fold) in data set [1] (setting [2]) is 1 to 3 µM. Further, the “maximum fold (Fold) increase” value in the data set with Smn protein is on record as “* (maximum fold increase of ≤1.2)”.

`Cc1cn2cc(-c3cc4ccc(CCCN(C)C)cc4oc3=O)cc(F)c2n1` [Compound 909, 7-[3-(dimethylamino)propyl]-3-(8-fluoro-2-methylimidazo[1,2-a]pyridin-6-yl)-2H-chromen-2-one] showed a melting point of 185 to 188 °C. In addition, the EC (1.5-fold) in data set [1] (setting [2]) is < 0.1 µM. Further, in the data set with Smn protein, the EC1.5x (concentration giving 1.5-fold Smn protein increase) was < 300 nM and the “maximum fold (Fold) increase” value is “***** (fold increase >1.65)”.

The molecule `Cc1nc(Cl)cn2cc(-c3cc4ccc(N5CCN(C)[C@H](C)C5)cc4oc3=O)nc12` [Compound 726, 3-(6-chloro-8-methylimidazo[1,2-a]pyrazin-2-yl)-7-[(3R)-3,4-dimethylpiperazin-1-yl]-2H-chromen-2-one] had a melting point of 250 to 252 °C. Besides, the EC (1.5-fold) in data set [1] (setting [2]) was < 0.1 µM. Besides, in the data set on Smn protein, the EC1.5x (concentration giving 1.5-fold Smn protein increase) lay in the range of 300 to 1000 nM; the “maximum fold (Fold) increase” value was “**** (fold increase between >1.5 and ≤1.65)”.

`CN(C)CCN(C)c1ccc2cc(-c3cn4cccnc4n3)c(=O)oc2c1` [Compound 130, 7-{[2-(dimethylamino)ethyl](methyl)amino}-3-(imidazo[1,2-a]pyrimidin-2-yl)-2H-chromen-2-one] yielded a melting point of 175 to 180 °C. The EC (1.5-fold) in data set [1] (setting [2]) was 1 to 3 µM. In addition, in the data set on Smn protein, the “maximum fold (Fold) increase” value is reported as “* (maximum fold increase of ≤1.2)”.

With `Cc1cn2cc(-c3cc4ccc(C5CCN(C6CCC6)CC5)cc4oc3=O)nc2c(C)n1` [Compound 821, 7-(1-cyclobutylpiperidin-4-yl)-3-(6,8-dimethylimidazo[1,2-a]pyrazin-2-yl)-2H-chromen-2-one], the melting point lay in the range of 200 to 205 °C. Further, the EC (1.5-fold) in data set [1] (setting [2]) was < 0.1 µM. In the data set with Smn protein, the EC1.5x (concentration giving 1.5-fold Smn protein increase) is < 300 nM and the “maximum fold (Fold) increase” value was “***** (fold increase >1.65)”.

Take `CN(C)Cc1ccc2cc(-c3nc4c(Cl)cccc4s3)c(=O)oc2c1` [Cpd 14, 3-(4-chloro-1,3-benzothiazol-2-yl)-7-[(dimethylamino)methyl]-2H-chromen-2-one]: the melting point was in the range of 179 to 182 °C. In addition, the EC (1.5-fold) in data set [1] (setting [2]) lay within 0.3 to 1 µM. In the data set with Smn protein, the “maximum fold (Fold) increase” value was “*** (fold increase between >1.35 and ≤1.5)”.

On to `COc1cc(-c2cc3ccc(N4CCN[C@@H](C)C4)cc3oc2=O)ccc1C` [Compound 575, 3-(3-methoxy-4-methylphenyl)-7-[(3S)-3-methylpiperazin-1-yl]-2H-chromen-2-one], for which the melting point lay within 166 to 170 °C. Also, the EC (1.5-fold) in data set [1] (setting [2]) was in the range of 0.3 to 1 µM. In addition, the “maximum fold (Fold) increase” value in the data set on Smn protein is reported as “* (maximum fold increase of ≤1.2)”.

Take `C[C@H]1CN(c2ccc3cc(-c4ccncc4)c(=O)oc3c2)CCN1` [Compound 549, 7-[(3S)-3-methylpiperazin-1-yl]-3-(pyridin-4-yl)-2H-chromen-2-one]: the melting point is 210 to 213 °C. Moreover, the EC (1.5-fold) in data set [1] (24 h) was in the range of 1 to 3 µM. Also, the “maximum fold (Fold) increase” value in the data set with Smn protein was “** (fold increase between >1.2 and ≤1.35)”.

Turning to `CCCN1CCN(c2ccc3cc(-c4cc5cc(C)nc(C)c5o4)c(=O)oc3c2)CC1` [Compound 815, 3-(5,7-dimethylfuro[2,3-c]pyridin-2-yl)-7-(4-propylpiperazin-1-yl)-2H-chromen-2-one], the melting point was 259 to 262 °C. For the same molecule, the EC (1.5-fold) in data set [1] (setting [2]) is < 0.1 µM. Further, in the data set with Smn protein, the EC1.5x (concentration giving 1.5-fold Smn protein increase) was < 300 nM; the “maximum fold (Fold) increase” value was “**** (fold increase between >1.5 and ≤1.65)”.
